This is an account of results in ChEMBL document CHEMBL1127147, “Rational design for cytosolic delivery of nucleoside monphosphates : SATE and DTE as enzyme-labile transient phosphate protecting groups” (Bioorg Med Chem Lett, 1993).

Experiment [1] concerns CEM-TK(-). The experiment in a line: Tested for cytotoxicity against human CEM-TK- cell line (deficient in thymidine kinase activity). The experiment is classed as functional.
Experiment [2] has as its system CEM-TK(-). The experiment in a line: Tested for antiviral activity against HIV-1 infected human CEM-TK- cell line (deficient in thymidine kinase activity). The class given is functional, cell-based.
Experiment [3] deals with CEM-SS. In words: Tested for cytotoxicity against human CEM-SS cell line; Percent reduction 40. The experiment is classed as functional.
Experiment [4] deals with CEM-SS. The experiment in a line: Tested for antiviral activity against HIV-1 infected human CEM-SS cell line. The class given is functional, cell-based.
Experiment [5] relates to CEM-SS. In words: Tested for cytotoxicity against human CEM-SS cell line. The experiment is classed as functional.

Turning to `O=c1ccn(C2CCC(COP(=O)(OCCSSCCO)OCCSSCCO)O2)c(=O)[nH]1` (stereo not drawn), the CC50 in the experiment with CEM-TK(-) [1] was 80 µM; in the experiment on CEM-SS [3] it was over 100 µM. The values for the concentration giving a half-maximal response (EC50) in the experiment with CEM-TK(-) [2] and with CEM-SS [4] were 8 µM and 60 µM, respectively.

For `CC(=O)SCCOP(=O)(OCCSC(C)=O)OCC1CCC(n2ccc(=O)[nH]c2=O)O1` (stereo not drawn), the CC50 in the experiment with CEM-TK(-) [1] is 70 µM; in the experiment with CEM-SS [5] it was 900 µM. The EC50 was determined as 4 µM with CEM-TK(-) [2] and 5 µM in the experiment with CEM-SS [4].
